Measurements: patent publication US8354431B2, “Aryl carboxylic acid cyclohexyl amide derivatives” (Novartis AG, priority 2007, dated 2013)

Tests used:
hCCR2b = target: T1, hCCR2b (Homo sapiens, UniProt P41597); assay: CCR2 membrane binding assay (SPA, [125I] MCP-1); settings: table does not name the assay; b437 says 'in these assays'
T1 construct: expressed in transfected cells; host or cells: CHO-dukX
T1 sequence (P41597 1-360 isoform P41597-2): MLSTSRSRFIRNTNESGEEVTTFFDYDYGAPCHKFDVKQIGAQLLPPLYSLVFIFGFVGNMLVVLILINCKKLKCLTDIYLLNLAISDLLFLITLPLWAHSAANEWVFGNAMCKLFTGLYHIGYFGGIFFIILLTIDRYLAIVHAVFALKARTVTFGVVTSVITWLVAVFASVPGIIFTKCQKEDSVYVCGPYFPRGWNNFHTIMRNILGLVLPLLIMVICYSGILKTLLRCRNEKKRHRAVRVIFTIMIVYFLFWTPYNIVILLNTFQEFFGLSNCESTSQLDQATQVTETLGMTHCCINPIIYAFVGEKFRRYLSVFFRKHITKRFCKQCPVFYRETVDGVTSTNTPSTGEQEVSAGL
Protocol: Transfected CHO-dukX cells stably expressing the hCCR2b gene are grown in MEM alpha medium to a confluency of between 70 and 80%. After discarding the medium, 30 ml ice-cold physiological buffer solution containing 1 mM EDTA are added and the cells removed from the plate using a scraper. The cell suspension is centrifuged at 800 g for 10′ at 4° C. and the cell pellet resuspended in buffer. Cell lysis is done using a Polytron PTI300D instrument at 28 000 RPM for 2 times 30 seconds on ice. Membranes are collected by centrifugation at 42 000 g for 20 minutes at 4° C. and subjected to a second round of lysis (Polytron, 28 000 RPM, 2×30 seconds on ice). Following centrifugation at 42 000 g for 20 minutes at 4° C. the membranes are resuspended in buffer at a protein concentration of 2 mg/ml and stored at −80° C. Ten millimolar stock solutions of test compounds in 100% DMSO are prepared. Test compounds are further diluted in buffer to yield the four-fold concentrated solutions for the tests that assayed a range of 10^−10 to 10^−5 M. The SPA assay is performed in a final volume of 200 μl per well in 96 well plates. The components are added per well in the following order: • 50 μl Buffer (+/−test compound) • 50 μl Wheat germ agglutinin-SPA beads (1.25 mg/well) in buffer • 50 μl CCR2B membrane suspension diluted with buffer to 0.04 mg/ml (2 μg/well), alternatively 50,000 cells per well • 50 μl [^125I] MCP-1 in buffer (60 pM final concentration, 2.5 μCi/plate)
After addition of all components the plate is sealed and incubated for 90 minutes at room temperature with constant shaking. Following incubation the plate is centrifuged at 1000 RPM in a Sorvall RC3B centrifuge for 4 minutes at room temperature and counted for 3 minutes per well in a TOP COUNT instrument (Packard). The quench-corrected counts are used for the analysis of radioligand binding.

Human CCR5 = target: T2, Human CCR5 (Homo sapiens, UniProt P51681); assay: CCR5 membrane binding assay ([I-125]MIP-1α); settings: table does not name the assay; b437 says 'in these assays'
T2 construct: expressed in transfected cells; host or cells: CHO K1
T2 sequence (P51681 whole entry): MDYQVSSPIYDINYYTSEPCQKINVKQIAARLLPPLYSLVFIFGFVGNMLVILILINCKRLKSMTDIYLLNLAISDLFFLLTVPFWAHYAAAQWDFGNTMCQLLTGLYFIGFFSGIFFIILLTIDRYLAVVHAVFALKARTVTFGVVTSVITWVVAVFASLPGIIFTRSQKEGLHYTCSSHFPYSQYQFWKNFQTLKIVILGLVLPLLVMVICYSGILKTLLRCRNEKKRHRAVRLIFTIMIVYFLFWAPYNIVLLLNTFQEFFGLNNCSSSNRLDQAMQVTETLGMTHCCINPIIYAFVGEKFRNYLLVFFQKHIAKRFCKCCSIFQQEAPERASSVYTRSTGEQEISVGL
Protocol: Human CCR5 is used to generate stable transfectants in CHO K1 cells. Membranes prepared from these CCR5 transfectants are used in a radioligand binding assay using 125-1-MIP-1α as a ligand and the compounds of formula I are tested for inhibitory activity. The data are reported as IC50, i.e. the concentration of compound required to achieve 50% inhibition of [I-125]MIP-1α binding. In this assay, compounds of formula I have an IC50 between 0.004 and 10 μM.

Row | Compound | IC50 (hCCR2b) [nM] | IC50 (Human CCR5) [nM]
1 | COCC(C)Oc1ccc2c(COc3cccc4[nH]c(C(=O)N[C@H]5CC[C@](O)(CCN6CC[C@H](O)[C@@H](C)C6)CC5)cc34)coc2c1 (mixture of isomers) [Example 17, 4-[6-((RS)-2-Methoxy-1-methyl-ethoxy)-benzofuran-3-ylmethoxy]-1H-indole-2-carboxylic acid {4-hydroxy-4-[2-((3S,4S)-4-hydroxy-3-methyl-piperidin-1-yl)-ethyl]-cyclohexyl}-amide] | 0.8 | –
2 | C[C@H]1CN(CC[C@]2(O)CC[C@@H](NC(=O)c3cc4c(OCC5CCC5)cccc4[nH]3)CC2)CC[C@@H]1O [Example 1, 4-Cyclobutylmethoxy-1H-indole-2-carboxylic acid {4-hydroxy-4-[2-((3S,4S)-4-hydroxy-3-methyl-piperidin-1-yl)-ethyl]-cyclohexyl}-amide] | 12 | 13.2
3 | C[C@H]1CN(CC[C@]2(O)CC[C@@H](NC(=O)c3cc4c(OCc5ccoc5)cccc4[nH]3)CC2)CC[C@@H]1O [Example 3, 4-(Furan-3-ylmethoxy)-1H-indole-2-carboxylic acid {4-hydroxy-4-[2-((3S,4S)-4-hydroxy-3-methyl-piperidin-1-yl)-ethyl]-cyclohexyl}-amide] | – | 13.8
4 | C[C@H]1CN(CC[C@]2(O)CC[C@@H](NC(=O)c3cc4c(OCc5coc6c5C(=O)CCC6)cccc4[nH]3)CC2)CC[C@@H]1O [Example 6, 4-(4-Oxo-4,5,6,7-tetrahydro-benzofuran-3-ylmethoxy)-1H-indole-2-carboxylic acid {4-hydroxy-4-[2-((3S,4S)-4-hydroxy-3-methyl-piperidin-1-yl)-ethyl]-cyclohexyl}-amide] | 24.3 | 27
5 | C[C@H]1CN(CC[C@]2(O)CC[C@@H](NC(=O)c3cc4c(OCc5coc6c5C(=O)CC(C)(C)C6)cccc4[nH]3)CC2)CC[C@@H]1O [Example 7, 4-(6,6-Dimethyl-4-oxo-4,5,6,7-tetrahydro-benzofuran-3-ylmethoxy)-1H-indole-2-carboxylic acid {4-hydroxy-4-[2-((3S,4S)-4-hydroxy-3-methyl-piperidin-1-yl)-ethyl]-cyclohexyl}-amide] | 13.8 | 11.9
6 | C[C@H]1CN(CC[C@]2(O)CC[C@@H](NC(=O)c3cc4c(OC[C@@H]5COc6ccccc65)cccc4[nH]3)CC2)CC[C@@H]1O [Example 8, 4-[(S)-1-(2,3-Dihydro-benzofuran-3-yl)methoxy]-1H-indole-2-carboxylic acid {4-hydroxy-4-[2-((3S,4S)-4-hydroxy-3-methyl-piperidin-1-yl)-ethyl]-cyclohexyl}-amide] | 10.8 | 58.5
7 | COc1cccc2occ(COc3cccc4[nH]c(C(=O)N[C@H]5CC[C@](O)(CCN6CC[C@H](O)[C@@H](C)C6)CC5)cc34)c12 [Example 10, 4-(4-Methoxy-benzofuran-3-ylmethoxy)-1H-indole-2-carboxylic acid {4-hydroxy-4-[2-((3S,4S)-4-hydroxy-3-methyl-piperidin-1-yl)-ethyl]-cyclohexyl}-amide] | 1.5 | 10.6
8 | C[C@H]1CN(CC[C@]2(O)CC[C@@H](NC(=O)c3cc4c(OCc5coc6cc(F)cc(F)c56)cccc4[nH]3)CC2)CC[C@@H]1O [Example 11, 4-(4,6-Difluoro-benzofuran-3-ylmethoxy)-1H-indole-2-carboxylic acid {4-hydroxy-4-[2-((3S,4S)-4-hydroxy-3-methyl-piperidin-1-yl)-ethyl]-cyclohexyl}-amide] | 2.3 | –
9 | C[C@H]1CN(CC[C@]2(O)CC[C@@H](NC(=O)c3cc4c(OCc5coc6ccc(Cl)cc56)cccc4[nH]3)CC2)CC[C@@H]1O [Example 12, 4-(5-Chloro-benzofuran-3-ylmethoxy)-1H-indole-2-carboxylic acid {4-hydroxy-4-[2-((3S,4S)-4-hydroxy-3-methyl-piperidin-1-yl)-ethyl]-cyclohexyl}-amide] | 0.2 | 0.5
10 | COc1ccc2c(COc3cccc4[nH]c(C(=O)N[C@H]5CC[C@](O)(CCN6CC[C@H](O)[C@@H](C)C6)CC5)cc34)coc2c1 [Example 13, 4-(6-Methoxy-benzofuran-3-ylmethoxy)-1H-indole-2-carboxylic acid {4-hydroxy-4-[2-((3S,4S)-4-hydroxy-3-methyl-piperidin-1-yl)-ethyl]-cyclohexyl}-amide] | 2.7 | 5.8
11 | COCCCOc1ccc2c(COc3cccc4[nH]c(C(=O)N[C@H]5CC[C@](O)(CCN6CC[C@H](O)[C@@H](C)C6)CC5)cc34)coc2c1 [Example 19, 4-[6-(3-Methoxy-propoxy)-benzofuran-3-ylmethoxy]-1H-indole-2-carboxylic acid {4-hydroxy-4-[2-((3S,4S)-4-hydroxy-3-methyl-piperidin-1-yl)-ethyl]-cyclohexyl}-amide] | 0.7 | –
12 | CCOCCCOc1ccc2c(COc3cccc4[nH]c(C(=O)N[C@H]5CC[C@](O)(CCN6CC[C@H](O)[C@@H](C)C6)CC5)cc34)coc2c1 [Example 20, 4-[6-(3-Ethoxy-propoxy)-benzofuran-3-ylmethoxy]-1H-indole-2-carboxylic acid {4-hydroxy-4-[2-((3S,4S)-4-hydroxy-3-methyl-piperidin-1-yl)-ethyl]-cyclohexyl}-amide] | 0.9 | 3.2
13 | C[C@H]1CN(CC[C@]2(O)CC[C@@H](NC(=O)c3cc4c(OCc5coc6cc(O[C@H]7CCOC7)ccc56)cccc4[nH]3)CC2)CC[C@@H]1O [Example 21, 4-{6-[(S)-(Tetrahydro-furan-3-yl)oxy]-benzofuran-3-ylmethoxy}-1H-indole-2-carboxylic acid {4-hydroxy-4-[2-((3S,4S)-4-hydroxy-3-methyl-piperidin-1-yl)-ethyl]-cyclohexyl}-amideamide] | 1.6 | 9
14 | C[C@H]1CN(CC[C@]2(O)CC[C@@H](NC(=O)c3cc4c(OCc5coc6cc(F)ccc56)cccc4[nH]3)CC2)CC[C@@H]1O [Example 22, 4-(6-Fluoro-benzofuran-3-ylmethoxy)-1H-indole-2-carboxylic acid {4-hydroxy-4-[2-((3S,4S)-4-hydroxy-3-methyl-piperidin-1-yl)-ethyl]-cyclohexyl}-amide] | 7.4 | –
15 | COc1cccc2c(COc3cccc4[nH]c(C(=O)N[C@H]5CC[C@](O)(CCN6CC[C@H](O)[C@@H](C)C6)CC5)cc34)coc12 [Example 23, 4-(7-Methoxy-benzofuran-3-ylmethoxy)-1H-indole-2-carboxylic acid {4-hydroxy-4-[2-((3S,4S)-4-hydroxy-3-methyl-piperidin-1-yl)-ethyl]-cyclohexyl}-amide] | 12.5 | 12.1
